Results as given in patent publication US20250228761A1, “COMPOSITION COMPRISING A SURFACE-REACTED CALCIUM CARBONATE AND A TANNIN” (Omya International AG, priority 2021, published 2025).

Experiment: In vitro measurement of antiperspirant effect (SOD4 device, Smart-Pore microchannels)
Conditions: 80% hygrometry, 2 mg/cm^2 dose
Description: In vitro measurement of antiperspirant activity was measured with an SOD4 device from Microfactory, France. The SOD4 device is an automated biomimetic system that imitates the sweating process. The device comprises (1) Smart-Pore™: a silicone microfluidic chip containing microchannels which mimic skin pores (number of pores per chip: 4; dimensions of the pores: 60 μm×60 μm×2 mm; material: polydimethylsiloxane); (2) a pressure system controlling the flow of sweat in the pores down to nanoliter volumes; (3) a climate chamber regulated in humidity/temperature to reproduce perspiration conditions; (4) an optical system to monitor and record the interaction between the antiperspirant and artificial sweat.
Known antiperspirants block sweat pores thereby reducing sweating of a subject. The blocking is caused by a precipitate or clot in the sweat pore which is formed by interaction of the antiperspirant with components of sweat. The SOD4 device mimics this process and allows for analyzing the interaction of an antiperspirant sample and artificial sweat in the microfluidic channel. The analysis includes, e.g. detection of precipitate/clot formation, measuring precipitate/clot formation time, and measuring pressure (bursting pressure) which is necessary for removing the precipitate/clot from the microchannel. […]

## Aluminium chlorohydrate [Sample 4]
Average of the maximal pressure applied before unclogging of precipitate/clot from the microchannel, after one hour interaction with artificial sweat at 25° C.
  Burst pressure (mbar)*: 699 +/− 34 mbar
Average over all observed clots, artificial sweat, 25° C.
  Clot formation time: 2047 s
